What was measured:
Type in all cases: physicochemical
[1] = Chemical stability (autoclaving at 121° C.); conditions: 5 mmol Gd/L in 10 mM Tris-HCl buffer, pH 7.4, 121° C. for 20 min
[2] = Relaxivity measurements at 3.0 T; conditions: 37° C., normalized to Gd, average ± standard deviation
Procedure: Relaxivity measurements at 3.0 T were performed with a whole body 3.0 T MRI Scanner (Philips Intera, Philips Healthcare, Hamburg, Germany) using a knee-coil (SENSE-Knee-8, Philips Healthcare, Hamburg, Germany). The sample tubes (CryoTubetm Vials, Thermo Scientific 1.8 mL, Roskilde, Denmark) were positioned in 3 rows of 4 and 5 tubes in a plastic holder in a box filled with water. The temperature was adjusted to 37° C. For the MRI sequence, the shortest possible echo-time (TE) with 7.46 milliseconds was used. The inversion times were chosen to optimize the sequence to measure T1 values corresponding to the estimated T1 range of all relaxation times of contrast media containing solutions. The following inversion times (TIs) were applied: 50, 100, 150, 200, 300, 500, 700, 1000, 1400, 2100, 3200, and 4500 milliseconds. The sequence was run with a constant relaxation delay of 3.4 seconds after the registration of the last echo (variable TR in the range from 3450 to 7900 milliseconds). For details of the fit procedure, see Rohrer et. al. (Invest. Radiol. 2005; 40, 11: 715-724). The experimental matrix of the phantom measurement was 320×320.
The relaxivities were evaluated using three different concentrations of each compound (3 concentrations between 0.05 and 2 mM).
(§1) The T1 relaxation times of the Example compounds 1-6 were measured in water and human plasma. Human plasma preparation: For each experiment fresh blood was taken from a volunteer using 10 mL citrate-tubes (Sarstedt S-Monovette 02.1067.001, 10 mL, Citrate). The 10 mL citrate-tubes were carefully inverted 10 times to mix blood and anticoagulant and centrifuged for 15 minutes at 1811 g at room temperature (Eppendorf, Centrifuge 5810R).
The relaxivities ri (where i=1, 2) were calculated on the basis of the measured relaxation rates Ri in water and plasma: Ri=Ri(0)+ri[CGd], where Ri(0) represent the relaxation rate of the respective solvent and CGd the concentration of the compound normalized to the Gadolinium (Table 2).

[3] = Relaxivity measurements at 1.41 T; conditions: 1.41 T, 37° C., normalized to Gd; for r1 FBS: fetal bovine serum
Procedure: Relaxivity measurements at 1.41 T were performed using a MiniSpec mq60 spectrometer (Bruker Analytik, Karlsruhe, Germany) operating at a resonance frequency of 60 MHz and a temperature of 37° C. The T1 relaxation times were determined using the standard inversion recovery (IR) method with a fixed relaxation delay of at least 5×T1. The variable inversion time (TI) was calculated automatically by the standard software of the MiniSpec mq60 (8 steps). The T2 measurements were done by using a Carr-Purcell-Meiboom-Gill (CPMG) pulse sequence, applying a relaxation delay of at least 5×T1.
Each relaxivity measurement was performed using three different Gd concentrations (3 concentrations between 0.05 and 2 mM). The T1 and T2 relaxation times of the example compounds 1-10 were measured in different media for example in water, fetal bovine serum (FBS, Sigma, F7524) and human plasma.
as §1, with “Human” for “The T1 relaxation times of the Example compounds 1-6 were measured in water and human plasma. Human”
The relaxivities ri (where i=1, 2) were calculated on the basis of the measured relaxation rates Ri in water and plasma: Ri=Ri(0)+ri[CGd], where Ri(0) represent the relaxation rate of the respective solvent and CGd the concentration of the compound normalized to the Gadolinium. The Gadolinium concentrations of the investigated solutions were verified by Inductively Coupled Plasma Mass Spectroscopy (ICP-MS Agilent 7500a, Waldbronn, Germany).

Water solubility = conditions: 10 mM Tris-HCl buffer, 20° C.
Procedure: The water solubility of the compounds was determined at room temperature (20° C.) in 0.5 mL buffer solution (10 mM Tris-HCl) in the microcentrifuge tubes (Eppendorf, 2.0 mL safe-lock caps). The solid compound was added stepwise to the buffer solution. The suspension was mixed using a shaker (Heidolph Reax 2000) and treated 5 min in an ultrasound bath (Bandelin, Sonorex Super RK255H) The suspension was stored at room temperature (20° C.) over night and final Gadolinium concentration was determined by inductively coupled plasma mass spectrometry (ICP-MS).

For `CC(C(=O)NCC(=O)NCC(CNC(=O)CNC(=O)C(C)N1CCN(CC(=O)[O-])CCN(CC(=O)[O-])CCN(CC(=O)[O-])CC1)C(=O)NCCN(CCNC(=O)C(CNC(=O)CNC(=O)C(C)N1CCN(CC(=O)[O-])CCN(CC(=O)[O-])CCN(CC(=O)[O-])CC1)CNC(=O)CNC(=O)C(C)N1CCN(CC(=O)[O-])CCN(CC(=O)[O-])CCN(CC(=O)[O-])CC1)C(=O)CNC(=O)C(C)N1CCN(CC(=O)[O-])CCN(CC(=O)[O-])CCN(CC(=O)[O-])CC1)N1CCN(CC(=O)[O-])CCN(CC(=O)[O-])CCN(CC(=O)[O-])CC1.[Gd+3].[Gd+3].[Gd+3].[Gd+3].[Gd+3]` (centres unmarked) [Example 1], the “appearance of the solution after autoclaving” value [1] was “still clear and colorless”, the r1 human plasma [2] was 10.8 ± 0.1 L/mmol/s and the r1 water [2] was 9.5 ± 0.2 L/mmol/s. The “r1 FBS” value [3] was 13.2 L/mmol/s, the r1 human plasma [3] was 13.0 L/mmol/s and the r1 water [3] was 11.1 L/mmol/s. For the same compound, the Solubility (Water solubility) was >1200 mmol Gd/L.

With `CC(C(=O)NCC(=O)NCC(CNC(=O)CNC(=O)C(C)N1CCN(CC(=O)[O-])CCN(CC(=O)[O-])CCN(CC(=O)[O-])CC1)C(=O)NCCN(CCNC(=O)C(CNC(=O)CNC(=O)C(C)N1CCN(CC(=O)[O-])CCN(CC(=O)[O-])CCN(CC(=O)[O-])CC1)CNC(=O)CNC(=O)C(C)N1CCN(CC(=O)[O-])CCN(CC(=O)[O-])CCN(CC(=O)[O-])CC1)C(=O)C(CNC(=O)CNC(=O)C(C)N1CCN(CC(=O)[O-])CCN(CC(=O)[O-])CCN(CC(=O)[O-])CC1)CNC(=O)CNC(=O)C(C)N1CCN(CC(=O)[O-])CCN(CC(=O)[O-])CCN(CC(=O)[O-])CC1)N1CCN(CC(=O)[O-])CCN(CC(=O)[O-])CCN(CC(=O)[O-])CC1.[Gd+3].[Gd+3].[Gd+3].[Gd+3].[Gd+3].[Gd+3]` (centres unmarked) [Example 2] the “appearance of the solution after autoclaving” value [1] was “still clear and colorless”, the r1 human plasma [2] was 11.4 ± 0.1 L/mmol/s and the r1 water [2] was 9.2 ± 0.3 L/mmol/s. The “r1 FBS” value [3] was 13.4 L/mmol/s, the r1 human plasma [3] was 13.9 L/mmol/s and the r1 water [3] was 12.1 L/mmol/s. The Solubility (Water solubility) was >1200 mmol Gd/L.

In the case of `CC(C(=O)NCC(=O)N(CCNC(=O)C1CN(C(=O)CNC(=O)C(C)N2CCN(CC(=O)[O-])CCN(CC(=O)[O-])CCN(CC(=O)[O-])CC2)CCN(C(=O)CNC(=O)C(C)N2CCN(CC(=O)[O-])CCN(CC(=O)[O-])CCN(CC(=O)[O-])CC2)C1)CCNC(=O)C1CN(C(=O)CNC(=O)C(C)N2CCN(CC(=O)[O-])CCN(CC(=O)[O-])CCN(CC(=O)[O-])CC2)CCN(C(=O)CNC(=O)C(C)N2CCN(CC(=O)[O-])CCN(CC(=O)[O-])CCN(CC(=O)[O-])CC2)C1)N1CCN(CC(=O)[O-])CCN(CC(=O)[O-])CCN(CC(=O)[O-])CC1.[Gd+3].[Gd+3].[Gd+3].[Gd+3].[Gd+3]` (centres unmarked) [Example 4, Pentagadolinium [4-(1-{[2-(bis{2-[({1,4-bis[({2-[4,7,10-tris(carboxylatomethyl)-1,4,7,10-tetraazacyclododecan-1-yl]propanoyl}amino)acetyl]-1,4-diazepan-6-yl}carbonyl)-amino]ethyl}amino)-2-oxoethyl]amino}-1-oxopropan-2-yl)-7,10-bis(carboxylatomethyl)-1,4,7,10-tetraazacyclododecan-1-yl]acetate], the r1 human plasma [2] is reported as 11.8 ± 0.3 L/mmol/s, the r1 water [2] is reported as 10.1 ± 0.2 L/mmol/s and the “r1 FBS” value [3] is reported as 13.3 L/mmol/s. For the same compound, the r1 human plasma [3] was 13.2 L/mmol/s, the r1 water [3] was 11.5 L/mmol/s and the Solubility (Water solubility) was >1200 mmol Gd/L.

In the case of “Hexagadolinium 2,2′,2″,2′″,2″″,2′″″,2″″″,2′″″″,2″″″″,2′″″″″,2″″″″″,2′″″″″″,2″″″″″″, 2′″″″″″″,2″″″″″″″, 2′″″″″″″″,2″″″″″″″″,2′″″″″″″″″-{ethane-1,2-diylcarbamoyl-1,4-diazepane-6,1,4-triyltris[(2-oxoethane-2,1-diyl)imino(1-oxopropane-1,2-diyl)-1,4,7,10-tetraazacyclododecane-10,1,4,7-tetrayl]}octadecaacetate [Example 5]”, the r1 human plasma [2] is reported as 12.4 ± 0.2 L/mmol/s, the r1 water [2] is reported as 10.8 ± 0.3 L/mmol/s and the “r1 FBS” value [3] is reported as 14.6 L/mmol/s. The r1 human plasma [3] was 14.3 L/mmol/s, the r1 water [3] was 13.0 L/mmol/s and the Solubility (Water solubility) was >1100 mmol Gd/L.
